US20250042889A1, “3CLPRO PROTEASE INHIBITOR” (SHANGHAI QILU PHARMACEUTICAL RESEARCH AND DEVELOPMENT …, priority 2021, published 2025)
Read-outs that look alike come from different tables or passages of the source.

Target: SARS-COV-2 3CLpro/Mpro protease (Severe acute respiratory syndrome coronavirus 2 (2019-nCoV) (SARS-CoV-2), UniProt P0DTD1)
Experiment: Inhibitory effect on SARS-COV-2 3CLpro/Mpro protease by fluorescence resonance energy transfer
Assay type: biochemical
Conditions: activity intervals A-D
[1] = read-out: IC50 (nM), Inhibition on SARS-CoV-2 3CLpro/Mpro protease

Compound `CNc1cncc(C(=O)N2CCC[C@@H](Nc3c(C(=O)N4CC(F)(F)OC(F)(F)C4)cc(Br)cc3[N+](=O)[O-])C2)c1` [Example 368, (R)-(5-bromo-2-((1-(5-(methylamino)nicotinoyl)piperidin-3-yl)amino)-3-nitrophenyl)(2,2,6,6-tetrafluoromorpholinyl)methanone] has an IC50 [1] of 10 to 50 nM.
Work on `CNc1cncc(C(=O)N2C[C@H](Nc3c(C(=O)N4C[C@@H](C)O[C@@H](C)C4)cc(Br)cc3[N+](=O)[O-])C[C@H]2C(=O)Nc2cnoc2)c1` [Example 369, (2S,4R)-4-((4-bromo-2-((2R,6S)-2,6-dimethylmorpholin-4-carbonyl)-6-nitrophenyl)amino)-N-(isoxazol-4-yl)-1-(5-(methylamino)nicotinoyl) pyrrolidin-2-formamide] yielded an IC50 [1] of 50 to 100 nM.
`CNc1cncc(C(=O)N2C[C@H](Nc3c(C(=O)N4C[C@@H](C)O[C@@H](C)C4)cc(Br)cc3[N+](=O)[O-])C[C@H]2C(=O)Nc2cccc(Br)c2)c1` [Example 370] gave an IC50 [1] of 50 to 100 nM.
`CNc1cncc(C(=O)N2C[C@H](Nc3c(C(=O)N4C5CCCC4COC5)cc(Br)cc3[N+](=O)[O-])[C@@H](OC)C2)c1` [Example 371] gave an IC50 (IC50 (nM), Inhibition on SARS-CoV-2 3CLpro/Mpro protease) of 10 to 50 nM.
Compound `CNc1cncc(C(=O)N2C[C@H](Nc3c(C(=O)N4CCC(F)(F)CC4)cc(Br)cc3[N+](=O)[O-])[C@@H](OC)C2)c1` [Example 372] has an IC50 [1] of 10 to 50 nM.
`C#C[C@@H]1C[C@@H](Nc2c(C(=O)N3C[C@@H](C)O[C@@H](C)C3)cc(Br)cc2[N+](=O)[O-])CN1C(=O)c1cncc(NC)c1` [Example 373] gave an IC50 [1] of 50 to 100 nM.
In the case of `CNc1cncc(C(=O)N2C[C@H](Nc3c(C(=O)N4CCCC(F)(F)C4)cc(Br)cc3[N+](=O)[O-])[C@@H](OC)C2)c1` [Example 374], the IC50 [1] is reported as 10 to 50 nM.
For `CNc1cncc(C(=O)N2C[C@H](Nc3c(C(=O)N4CCOC(F)(F)C4)cc(Br)cc3[N+](=O)[O-])[C@@H](OC)C2)c1` [Example 375], the IC50 [1] was 10 to 50 nM.
With `CNc1cncc(C(=O)N2C[C@H](Nc3c(C(=O)N4C[C@@H](C)O[C@@H](C)C4)cc(Br)cc3[N+](=O)[O-])C[C@H]2C(=O)N2CCOCC2)c1` [Example 376] the IC50 [1] was 50 to 100 nM.
For `CNc1cncc(C(=O)N2C[C@H](Nc3c(C(=O)N4C[C@@H](C)O[C@@H](C)C4)cc(Br)cc3[N+](=O)[O-])C[C@H]2C(=O)N(C)C)c1` [Example 377], the IC50 [1] was 50 to 100 nM.
With `CNc1cncc(C(=O)N2C[C@H](Nc3c(C(=O)N4C[C@@H](C)O[C@@H](C)C4)cc(Br)cc3[N+](=O)[O-])C[C@H]2C(=O)NC2CNC(=O)C2)c1` (stereo partly shown) [Example 378] the IC50 [1] was 10 to 50 nM.
`CNc1cncc(C(=O)N2C[C@H](Nc3c(C(=O)N4C[C@@H](C)O[C@@H](C)C4)cc(Br)cc3[N+](=O)[O-])C[C@H]2C(N)=O)c1` [Example 379, (2S,4R)-4-((4-bromo-2-((2R,6S)-2,6-dimethylmorpholin-4-carbonyl)-6-nitrophenyl)amino)-1-(5-(methylamino)nicotinoyl) pyrrolidin-2-formamide] showed an IC50 [1] of 10 to 50 nM.
For `CNc1cncc(C(=O)N2C[C@H](Nc3c(C(=O)N4C[C@@H](C)O[C@@H](C)C4)cc(Br)cc3[N+](=O)[O-])CC2C(=O)NCC(F)(F)F)c1` (stereo partly shown) [Example 380], the IC50 [1] was 10 to 50 nM.
In the case of `CNc1cncc(C(=O)N2C[C@H](Nc3c(C(=O)N4C[C@@H](C)O[C@@H](C)C4)cc(Br)cc3[N+](=O)[O-])C[C@H]2C(=O)N2CC(F)(F)C2)c1` [Example 382], the IC50 [1] is reported as 50 to 100 nM.
`CNc1cncc(C(=O)N2C[C@H](Nc3c(C(=O)N4C[C@@H](C)O[C@@H](C)C4)cc(Br)cc3[N+](=O)[O-])C[C@H]2C(=O)Nc2nn(C)cc2Br)c1` [Example 383, (2S,4R)—N-(4-bromo-1-methyl-1H-pyrazol-3-yl)-4-((4-bromo-2-((2R,6S)-2,6-dimethylmorpholin-4-carbonyl)-6-nitrophenyl)amino)-1-(5-(methylamino)nicotinoyl) pyrrolidin-2-formamide] showed an IC50 [1] of 10 to 50 nM.
`CNc1cncc(C(=O)N2C[C@H](Nc3c(C(=O)N4C[C@@H](C)O[C@@H](C)C4)cc(Br)cc3[N+](=O)[O-])C[C@H]2C(=O)Nc2ccn(C)n2)c1` [Example 385] showed an IC50 [1] of 10 to 50 nM.
Compound `CNc1cncc(C(=O)N2C[C@H](Nc3c(C(=O)N4C[C@@H](C)O[C@@H](C)C4)cc(Br)cc3[N+](=O)[O-])C[C@H]2C(=O)N2CC(O)C2)c1` [Example 386] has an IC50 [1] of 50 to 100 nM.
With `CNc1cncc(C(=O)N2C[C@H](Nc3c(C(=O)N4C[C@@H](C)O[C@@H](C)C4)cc(Br)cc3[N+](=O)[O-])C[C@H]2C(=O)Nc2ccccc2)c1` [Example 387] the IC50 [1] was 10 to 50 nM.
In the case of `CNc1cncc(C(=O)N2C[C@H](Nc3c(C(=O)N4C[C@@H](C)O[C@@H](C)C4)cc(Br)cc3[N+](=O)[O-])C[C@H]2C(=O)NC2CC2)c1` [Example 388], the IC50 [1] is reported as 50 to 100 nM.
Work on `CNc1cncc(C(=O)N2C[C@H](Nc3c(C(=O)N4C[C@@H](C)O[C@@H](C)C4)cc(Br)cc3[N+](=O)[O-])C[C@H]2C(=O)NCc2ccccc2)c1` [Example 390] yielded an IC50 [1] of 10 to 50 nM.
Work on `CNc1cncc(C(=O)N2C[C@H](Nc3c(C(=O)N4C[C@@H](C)O[C@@H](C)C4)cc(Br)cc3[N+](=O)[O-])C[C@@H]2C#N)c1` [Example 391] yielded an IC50 [1] of 50 to 100 nM.
Work on `CNc1cncc(C(=O)N2C[C@H](Nc3c(C(=O)N4C[C@@H](C)O[C@@H](C)C4)cc(Br)cc3[N+](=O)[O-])C[C@H]2C#Cc2cnn(C)c2)c1` [Example 392] yielded an IC50 [1] of 50 to 100 nM.
Work on `CNc1cncc(C(=O)N2C[C@H](Nc3c(C(=O)N4C[C@@H](C)O[C@@H](C)C4)cc(Br)cc3[N+](=O)[O-])C[C@H]2C(=O)NC2CNC(=O)C2)c1` (stereo partly shown) [Example 393] yielded an IC50 [1] of 50 to 100 nM.
`CNc1cncc(C(=O)N2C[C@H](Nc3c(C(=O)N4C[C@@H](C)O[C@@H](C)C4)cc(Br)cc3[N+](=O)[O-])C[C@H]2C(=O)NCCOC)c1` [Example 394] was tested, and the IC50 [1] was 50 to 100 nM.
Compound `CNc1cncc(C(=O)N2C[C@H](Nc3c(C(=O)N4C[C@@H](C)O[C@@H](C)C4)cc(Br)cc3[N+](=O)[O-])C[C@H]2C(=O)NCc2ccncc2)c1` [Example 395] has an IC50 [1] of 50 to 100 nM.
Compound `CNc1cncc(C(=O)N2C[C@H](Nc3c(C(=O)N4C[C@@H](C)O[C@@H](C)C4)cc(Br)cc3[N+](=O)[O-])C[C@H]2c2nnco2)c1` [Example 396] has an IC50 [1] of 50 to 100 nM.
With `CNc1cncc(C(=O)N2C[C@H](Nc3c(C(=O)N4C[C@@H](C)O[C@@H](C)C4)cc(Br)cc3[N+](=O)[O-])C[C@H]2C(=O)N[C@@H]2CCNC2=O)c1` [Example 397] the IC50 [1] was 50 to 100 nM.
Compound `CNc1cncc(C(=O)N2C[C@H](Nc3c(C(=O)N4C[C@@H](C)O[C@@H](C)C4)cc(Br)cc3[N+](=O)[O-])CC[C@H]2C#N)c1` [Example 398] has an IC50 [1] of 10 to 50 nM.
With `CNc1cncc(C(=O)N2C[C@H](Nc3c(C(=O)N4C[C@@H](C)O[C@@H](C)C4)cc(Br)cc3[N+](=O)[O-])C[C@H]2C(=O)Nc2cc3cn(C)nc3cc2Cl)c1` [Example 399] the IC50 [1] was 50 to 100 nM.
With `CNc1cncc(C(=O)N2C[C@H](Nc3c(C(=O)N4C[C@@H](C)O[C@@H](C)C4)cc(Br)cc3[N+](=O)[O-])C[C@H]2C#Cc2cnoc2)c1` [Example 400] the IC50 [1] was 100 to 200 nM.
With `CNc1cncc(C(=O)N2C[C@H](Nc3c(C(=O)N4C[C@@H](C)O[C@@H](C)C4)cc(Br)cc3[N+](=O)[O-])C[C@H]2C(=O)Nc2cnn(C)c2)c1` [Example 401] the IC50 [1] was 50 to 100 nM.
`CNc1cncc(C(=O)N2C[C@H](Nc3c(C(=O)N4C[C@@H](C)O[C@@H](C)C4)cc(Br)cc3[N+](=O)[O-])C[C@H]2C(=O)N[C@H]2CCOC2)c1` [Example 402] gave an IC50 [1] of 50 to 100 nM.
With `CNc1cncc(C(=O)N2C[C@H](Nc3c(C(=O)N4C[C@@H](C)O[C@@H](C)C4)cc(Br)cc3[N+](=O)[O-])CC[C@@H]2C#N)c1` [Example 403] the IC50 [1] was 50 to 100 nM.
`CNc1cncc(C(=O)N2C[C@H](Nc3c(C(=O)N4C[C@@H](C)O[C@@H](C)C4)cc(Br)cc3[N+](=O)[O-])C[C@H]2C(=O)N[C@H]2CCN(CCOC)C2)c1` [Example 404] gave an IC50 [1] of 100 to 200 nM.
In the case of `CNc1cncc(C(=O)N2C[C@H](Nc3c(C(=O)N4C[C@@H](C)O[C@@H](C)C4)cc(Br)cc3[N+](=O)[O-])[C@@H](OCCOC)C2)c1` [Example 405], the IC50 [1] is reported as 10 to 50 nM.
`CNc1cnc(F)c(C(=O)N2C[C@H](Nc3c(C(=O)N4C[C@@H](C)O[C@@H](C)C4)cc(Br)cc3[N+](=O)[O-])[C@@H](OC)C2)c1` [Example 406] was tested, and the IC50 [1] was 50 to 100 nM.
Compound `CNc1cncc(C(=O)N2C[C@H](Nc3c(C(=O)N4C[C@@H](C)O[C@@H](C)C4)cc(Br)cc3[N+](=O)[O-])CC2C(=O)Nc2cc(Cl)n(C)n2)c1` (stereo partly shown) [Example 407] has an IC50 [1] of 50 to 100 nM.
For `CO[C@H]1CN(C(=O)c2cncc3[nH]cnc23)C[C@@H]1Nc1c(C(=O)N2C[C@@H](C)O[C@@H](C)C2)cc(Br)cc1[N+](=O)[O-]` [Example 408], the IC50 [1] was 10 to 50 nM.
Work on `CCn1cc(Br)c(NC(=O)[C@@H]2C[C@@H](Nc3c(C(=O)N4C[C@@H](C)O[C@@H](C)C4)cc(Br)cc3[N+](=O)[O-])CN2C(=O)c2cncc(NC)c2)n1` [Example 409] yielded an IC50 [1] of 50 to 100 nM.
Work on `CNc1cncc(C(=O)N2C[C@H](Nc3c(C(=O)N4C[C@@H](C)O[C@@H](C)C4)cc(Br)cc3[N+](=O)[O-])C[C@H]2C(=O)Nc2cn(C)c(=O)cc2Cl)c1` [Example 410] yielded an IC50 [1] of 100 to 200 nM.
Work on `CNc1cncc(C(=O)N2C[C@H](Nc3c(C(=O)N4CCCC(F)(F)C4)cc(Br)cc3[N+](=O)[O-])C[C@H]2C(=O)Nc2nn(C)cc2Br)c1` [Example 411] yielded an IC50 [1] of 50 to 100 nM.
With `CNc1cncc(C(=O)N2C[C@H](Nc3c(C(=O)N4C[C@@H](C)O[C@@H](C)C4)cc(Br)cc3[N+](=O)[O-])C[C@H]2C(=O)Nc2cn(C)nc2Br)c1` [Example 412] the IC50 [1] was 50 to 100 nM.
In the case of `CNc1cncc(C(=O)N2C[C@H](Nc3c(C(=O)N4C[C@@H](C)O[C@@H](C)C4)cc(Br)cc3[N+](=O)[O-])C[C@H]2C(=O)NC2CN(CCOC)C2)c1` [Example 413], the IC50 [1] is reported as 100 to 200 nM.
Work on `CNc1cncc(C(=O)N2C[C@H](Nc3c(C(=O)N4C[C@@H](C)O[C@@H](C)C4)cc(Br)cc3[N+](=O)[O-])C[C@H]2C#Cc2ccn(C)n2)c1` [Example 414] yielded an IC50 [1] of 100 to 200 nM.
`CNc1cncc(C(=O)N2C[C@H](Nc3c(C(=O)N4C[C@@H](C)O[C@@H](C)C4)cc(Br)cc3[N+](=O)[O-])C[C@H]2C(=O)Nc2ccnc(F)c2)c1` [Example 415] showed an IC50 [1] of 50 to 100 nM.
Compound `CNc1cncc(C(=O)N2C[C@H](Nc3c(C(=O)N4C[C@@H](C)O[C@@H](C)C4)cc(Br)cc3[N+](=O)[O-])C[C@H]2C(=O)Nc2ccc(C(F)(F)F)nc2)c1` [Example 416] has an IC50 [1] of 100 to 200 nM.
